Experimental data: patent publication US11999736B1, “Pyrazino[2′,1′:2,3]imidazo[4,5-b][1,7]naphthyridines compounds as CK2 inhibitors” (KING FAISAL UNIVERSITY, priority 2023, dated 2024)
pIC50: −log10 of the molar value.

Key:
[1] = test system: PC3 (prostate) cancer cell line; assay: In vitro cytotoxic activity MTT assay, PC3; format: cell-based; conditions: Homo sapiens, PC3 (prostate) cells, exposed for 96 hours, read-out: IC50, concentration of compound eliciting a 50% inhibition of cell proliferation
Description: (§1) Compounds 1-16 were screened for their in vitro cytotoxic activity utilizing a 3-(4,5-dimethyl-thiazol-2-yl)-2,5-diphenyltetrazolium bromide (MTT) assay against selected cancer human cell lines consisting of PC3 (prostate), HCT116 (colon), A375 (melanoma), H1299 (lung), MIAPaCa-2 (pancreas), HL60 (leukemia), MCF7 (breast), MDA-MB-231 (breast) (T. Mosmann, J. Immunol. Meth., 1983, 65, 55-63). The cells were cultured at 37° C. in RMPI1640 medium supplemented with 10% fetal bovine serum, 50 IU/mL penicillin, and 50 μg/mL streptomycin in a 5% CO2 incubator. All cells were sub-cultured 3 times/week by trypsinisation. Viable cells were seeded and allowed to adhere for 12 h before a test drug was added in 96-well plates at an initial density of 1.0×10^5 cells/mL. Tumor cell lines were separately exposed to various concentrations of the tested compounds followed by incubation at a temperature of 37° C. during 96 hours inside a medium of fresh RMPI 1640. Cells were subsequently incubated at 37° C. using MTT at 0.5 mg/mL during 4 hours. After removal of supernatant, formazan crystals were dissolved in isopropanol and the optical density was measured at 570 nm. CX-4945 was used as a positive control.

[2] = test system: HCT116 (colon) cancer cell line; assay: In vitro cytotoxic activity MTT assay, HCT116; format: cell-based; conditions: Homo sapiens, HCT-116; HCT116 (colon) cells, exposed for 96 hours; read-out: IC50, concentration of compound eliciting a 50% inhibition of cell proliferation
Description: as §1

[3] = test system: A375 (melanoma) cancer cell line; assay: In vitro cytotoxic activity MTT assay, A375; format: cell-based; conditions: Homo sapiens, A-375; A375 (melanoma) cells, exposed for 96 hours; read-out: IC50, concentration of compound eliciting a 50% inhibition of cell proliferation
Description: as §1

[4] = test system: H1299 (lung) cancer cell line; assay: In vitro cytotoxic activity MTT assay, H1299; format: cell-based; conditions: Homo sapiens, NCI-H1299; H1299 (lung) cells, exposed for 96 hours; read-out: IC50, concentration of compound eliciting a 50% inhibition of cell proliferation
Description: as §1

[5] = test system: MIAPaCa-2 (pancreas) cancer cell line; assay: In vitro cytotoxic activity MTT assay, MIAPaCa-2; format: cell-based; conditions: Homo sapiens, MIA PaCa-2; MIAPaCa-2 (pancreas) cells, exposed for 96 hours; read-out: IC50, concentration of compound eliciting a 50% inhibition of cell proliferation
Description: as §1

[6] = test system: HL60 (leukemia) cancer cell line; assay: In vitro cytotoxic activity MTT assay, HL60; format: cell-based; conditions: Homo sapiens, HL-60; HL60 (leukemia) cells, exposed for 96 hours; read-out: IC50, concentration of compound eliciting a 50% inhibition of cell proliferation
Description: as §1

[7] = test system: MCF7 (breast) cancer cell line; assay: In vitro cytotoxic activity MTT assay, MCF7; format: cell-based; conditions: Homo sapiens; MCF7 (breast) cells, exposed for 96 hours; read-out: IC50, concentration of compound eliciting a 50% inhibition of cell proliferation
Description: as §1

[8] = test system: MDA-MB-231 (breast) cancer cell line; assay: In vitro cytotoxic activity MTT assay, MDA-MB-231; format: cell-based; conditions: Homo sapiens; MDA-MB-231 (breast) cells, exposed for 96 hours; read-out: IC50, concentration of compound eliciting a 50% inhibition of cell proliferation
Description: as §1

[9] = molecular target: T1, recombinant human CK2 (holoenzyme) (Homo sapiens, UniProt P68400); assay: CK2 Kinase Assay (radiometric, [γ-33P] ATP); format: biochemical; conditions: final ATP concentration 15 μM, 10 min at 30° C., eight concentrations; read-out: protein kinase CK2 inhibition IC50
T1 construct: purchased Millipore
Description: CK2 Kinase Assay was conducted using the protocol as described in Pierre F. et al; J. Med. Chem. 2011, 54, 635-654. The tested compounds in aqueous solution were added at a volume of 10 μL to a reaction mixture comprising 10 μL of assay dilution buffer (ADB; 20 mM MOPS, pH 7.2, 25 mM P-glycerol phosphate, 5 mM EGTA, 1 mM sodium orthovanadate, and 1 mM dithiothreitol), 10 μL of substrate peptide (RRRDDDSDDD, dissolved in ADB at a concentration of 1 mM), 10 μL of recombinant human CK2 (RROP-holoenzyme, 25 ng dissolved in ADB; Millipore). Reactions were initiated by the addition of 10 μL of ATP solution (90% 75 mMMgCl2, 75 μM ATP (final ATP concentration:15 μM) dissolved in ADB; 10% [γ-33P] ATP (stock 1mCi/100 μL; 3000 Ci/mmol (Perkin-Elmer) and maintained for 10 min at 30° C. The reactions were quenched with 100 μL of 0.75% phosphoric acid and then transferred to and filtered through a phosphor cellulose filter plate (Millipore). After washing each well five times with 0.75% phosphoric acid, the plate was dried under vacuum for 5 min and, following the addition of 15 μL of scintillation fluid to each well, the residual radioactivity was measured using a Wallac luminescence counter. The IC50 values were derived from eight concentrations of test inhibitors.

T1 sequence (P68400 whole entry): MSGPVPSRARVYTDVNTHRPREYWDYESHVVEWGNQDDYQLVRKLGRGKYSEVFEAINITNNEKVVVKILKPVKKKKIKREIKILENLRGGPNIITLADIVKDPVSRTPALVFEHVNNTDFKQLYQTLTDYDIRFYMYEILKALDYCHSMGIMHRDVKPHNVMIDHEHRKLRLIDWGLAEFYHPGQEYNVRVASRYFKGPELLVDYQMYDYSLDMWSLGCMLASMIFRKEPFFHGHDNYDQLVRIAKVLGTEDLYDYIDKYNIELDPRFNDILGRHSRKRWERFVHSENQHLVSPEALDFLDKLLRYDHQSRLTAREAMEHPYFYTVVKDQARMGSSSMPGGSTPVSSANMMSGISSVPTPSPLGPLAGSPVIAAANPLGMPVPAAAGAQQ
T1 sequence (P67870 whole entry partner): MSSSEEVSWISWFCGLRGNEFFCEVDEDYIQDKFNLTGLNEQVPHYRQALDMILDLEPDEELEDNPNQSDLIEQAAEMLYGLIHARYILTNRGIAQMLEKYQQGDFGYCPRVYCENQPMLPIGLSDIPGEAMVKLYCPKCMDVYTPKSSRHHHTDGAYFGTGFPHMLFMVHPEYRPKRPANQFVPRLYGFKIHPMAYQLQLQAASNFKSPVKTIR

Q: How did the pIC50 [1] turn out when `Clc1cccc(Nc2c3ccncc3nc3c2nc2cnccn23)c1` [Compound 1, N-(3-chlorophenyl)pyrazino[2′,1′:2,3]imidazo[4,5-b][1,7]naphthyridin-11-amine] was run?
A: 5.72

Q: And the pIC50 [2]?
A: 5.85

Q: What about the pIC50 [3] of the same compound?
A: 5.49

Q: And the pIC50 [4]?
A: 5.54

Q: What about the pIC50 [5] of the same compound?
A: 5.96

Q: And the pIC50 [6]?
A: 5.55

Q: What about the pIC50 [7] of the same compound?
A: 5.20

Q: And the pIC50 [8]?
A: 5.30

Q: And the pIC50 [9]?
A: 7.04
